Assay results: US20220132852A1, “PESTICIDALLY ACTIVE HETEROCYCLIC DERIVATIVES WITH SULFUR CONTAINING SUBSTITUENTS” (SYNGENTA CROP PROTECTION AG, priority 2019, published 2022)

Key:
Format in all cases: in vivo
[1] = system: Diabrotica balteata (Corn Root Worm); test: Example B1: Activity against Diabrotica balteata (corn root worm), sprayed maize sprouts; details: 96 h, application rate 200 ppm, L2 larvae on sprayed maize sprouts, 4 days after infestation, read-out: effect in at least one of the two categories (mortality or growth inhibition)
Description: Example B1: Activity Against Diabrotica balteata (Corn Root Worm)
Maize sprouts placed onto an agar layer in 24-well microtiter plates were treated with aqueous test solutions prepared from 10′000 ppm DMSO stock solutions by spraying. After drying, the plates were infested with L2 larvae (6 to 10 per well). The samples were assessed for mortality and growth inhibition in comparison to untreated samples 4 days after infestation.

[2] = system: Euschistus heros (Neotropical Brown Stink Bug); test: Example B2: Activity against Euschistus heros (neotropical brown stink bug), sprayed soybean leaves; details: 120 h, application rate 200 ppm, N2 nymphs on sprayed soybean leaves, 5 days after infestation, read-out: effect in at least one of the two categories (mortality or growth inhibition)
Description: Example B2: Activity Against Euschistus heros (Neotropical Brown Stink Bug)
Soybean leaves on agar in 24-well microtiter plates were sprayed with aqueous test solutions prepared from 10′000 ppm DMSO stock solutions. After drying the leaves were infested with N2 nymphs. The samples were assessed for mortality and growth inhibition in comparison to untreated samples 5 days after infestation.

[3] = system: Plutella xylostella (Diamond Back Moth); test: Example B3: Activity against Plutella xylostella (diamond back moth), artificial diet; details: 192 h, application rate 200 ppm, eggs on artificial diet, 8 days after infestation, read-out: effect in at least one of the two categories (mortality or growth inhibition)
Description: Example B3: Activity Against Plutella xylostella (Diamond Back Moth)
24-well microtiter plates with artificial diet were treated with aqueous test solutions prepared from 10′000 ppm DMSO stock solutions by pipetting. After drying, Plutella eggs were pipetted through a plastic stencil onto a gel blotting paper and the plate was closed with it. The samples were assessed for mortality and growth inhibition in comparison to untreated samples 8 days after infestation. The following compounds gave an effect of at least 80% in at least one of the two categories (mortality or growth inhibition) at an application rate of 200 ppm: P2, P4, P5, P6, P8, P9, P10, P11, P12, P14, P15, P16, P17, P18, P19, P20, P21, P22, P23, P24, P25, P26, P27, P28, P29, P30, P31, P32, P33, P34, P35, P36, P38, P39, P40, P42, P45, P46, P47, P49, P50, P51, P52.

[4] = system: Myzus persicae (Green Peach Aphid); test: whole plant or invertebrate; details: foliar, 144 h, application rate 200 ppm, sprayed sunflower leaf discs, mixed ages, 6 days after infestation
Description: Example B4: Activity Against Myzus persicae (Green Peach Aphid) Feeding/Contact Activity
Sunflower leaf discs were placed onto agar in a 24-well microtiter plate and sprayed with aqueous test solutions prepared from 10′000 ppm DMSO stock solutions. After drying, the leaf discs were infested with an aphid population of mixed ages. The samples were assessed for mortality 6 days after infestation.

[5] = system: Spodoptera littoralis (Egyptian Cotton Leaf Worm); test: Example B6: Activity against Spodoptera littoralis (Egyptian cotton leaf worm); details: foliar, 72 h, application rate 200 ppm, L1 larvae on sprayed cotton leaf discs, 3 days after infestation, read-out: control (mortality, anti-feeding effect or growth inhibition)
Description: Example B6: Activity Against Spodoptera littoralis (Egyptian Cotton Leaf Worm)
Cotton leaf discs were placed onto agar in 24-well microtiter plates and sprayed with aqueous test solutions prepared from 10′000 ppm DMSO stock solutions. After drying the leaf discs were infested with five L1 larvae. The samples were assessed for mortality, anti-feeding effect, and growth inhibition in comparison to untreated samples 3 days after infestation. Control of Spodoptera littoralis by a test sample is given when at least one of the categories mortality, anti-feedant effect, and growth inhibition is higher than the untreated sample.

[6] = system: Myzus persicae (Green Peach Aphid); test: Example B5: Activity against Myzus persicae (green peach aphid), systemic activity; details: 144 h, test rate 24 ppm, roots of pea seedlings in test solution, mixed ages, 6 days
Description: Example B5: Activity Against Myzus persicae (Green Peach Aphid) Systemic Activity
Roots of pea seedlings infested with an aphid population of mixed ages were placed directly into aqueous test solutions prepared from 10′000 DMSO stock solutions. The samples were assessed for mortality 6 days after placing seedlings into test solutions.

CCS(=O)(=O)c1ccc(NC)nc1-c1cc2cnn(CC(F)(F)C(F)(F)F)c2cn1 [Compound P14, 5-ethylsulfonyl-N-methyl-6-[1-(2,2,3,3,3-pentafluoropropyl)pyrazolo[3,4-c]pyridin-5-yl]pyridin-2-amine]
≥ 80%: percent effect (mortality or growth inhibition) at 200 ppm [1] | percent effect (mortality or growth inhibition) at 200 ppm [2] | percent effect (mortality or growth inhibition) at 200 ppm [3] | mortality at 200 ppm [4] | percent control (mortality, anti-feedant effect or growth inhibition) at 200 ppm [5]

CCS(=O)(=O)c1cc(C2(C#N)CC2)cnc1-c1cc2ccn(CC(F)(F)C(F)(F)F)c2cn1 [Compound P23, 1-[5-ethylsulfonyl-6-[1-(2,2,3,3,3-pentafluoropropyl)pyrrolo[2,3-c]pyridin-5-yl]-3-pyridyl] cyclopropane-carbonitrile]
≥ 80%: percent effect (mortality or growth inhibition) at 200 ppm [1] | percent effect (mortality or growth inhibition) at 200 ppm [2] | percent effect (mortality or growth inhibition) at 200 ppm [3] | mortality at 200 ppm [4] | percent control (mortality, anti-feedant effect or growth inhibition) at 200 ppm [5]

CCS(=O)(=O)c1ccc(N2CCOC2=O)nc1-c1cc2cnn(CC(F)(F)C(F)(F)F)c2cn1 [Compound P27, 3-[5-ethylsulfonyl-6-[1-(2,2,3,3,3-pentafluoropropyl)pyrazolo[3,4-c]pyridin-5-yl]-2-pyridyl]oxazolidin-2-one]
≥ 80%: percent effect (mortality or growth inhibition) at 200 ppm [3] | mortality at 200 ppm [4] | percent control (mortality, anti-feedant effect or growth inhibition) at 200 ppm [5]

CC[S+]([O-])c1cccnc1-c1cc2ccn(CC(F)(F)C(F)(F)F)c2cn1 (centres unmarked) [Compound P7, 5-(3-ethylsulfinyl-2-pyridyl)-1-(2,2,3,3,3-pentafluoropropyl) pyrrolo[2,3-c]pyridine]
≥ 80%: percent effect (mortality or growth inhibition) at 200 ppm [1] | mortality at 200 ppm [4]

CCSc1cccnc1-c1cc2ncn(CC(F)(F)C(F)(F)F)c2cn1 [Compound P44, 6-(3-ethylsulfanyl-2-pyridyl)-3-(2,2,3,3,3-pentafluoropropyl) imidazo[4,5-c]pyridine]
≥ 80%: mortality at 200 ppm [4] | mortality at 24 ppm [6]

CCS(=O)(=O)c1ccc(-n2cncn2)nc1-c1cc2ncn(CC(F)(F)C(F)(F)F)c2cn1 [Compound P32, 6-[3-ethylsulfonyl-6-(1,2,4-triazol-1-yl)-2-pyridyl]-3-(2,2,3,3,3-pentafluoropropyl)imidazo[4,5-c]pyridine]
≥ 80%: percent effect (mortality or growth inhibition) at 200 ppm [1] | percent effect (mortality or growth inhibition) at 200 ppm [2] | percent effect (mortality or growth inhibition) at 200 ppm [3] | mortality at 200 ppm [4]

CCS(=O)(=O)c1cc(N(C)C(C)=O)cnc1-c1cc2ccn(CC(F)(F)C(F)(F)F)c2cn1 [Compound P16, N-[5-ethylsulfonyl-6-[1-(2,2,3,3,3-pentafluoropropyl)pyrrolo[2,3-c]pyridin-5-yl]-3-pyridyl]-N-methyl-acetamide]
≥ 80%: percent effect (mortality or growth inhibition) at 200 ppm [1] | percent effect (mortality or growth inhibition) at 200 ppm [3] | mortality at 200 ppm [4] | mortality at 24 ppm [6] | percent control (mortality, anti-feedant effect or growth inhibition) at 200 ppm [5]

CCS(=O)(=O)c1ccc(NC)nc1-c1cc2ccn(CC(F)(F)C(F)(F)F)c2cn1 [Compound P24, 5-ethylsulfonyl-N-methyl-6-[1-(2,2,3,3,3-pentafluoropropyl)pyrrolo[2,3-c]pyridin-5-yl]pyridin-2-amine]
≥ 80%: percent effect (mortality or growth inhibition) at 200 ppm [1] | percent effect (mortality or growth inhibition) at 200 ppm [2] | percent effect (mortality or growth inhibition) at 200 ppm [3] | mortality at 200 ppm [4] | percent control (mortality, anti-feedant effect or growth inhibition) at 200 ppm [5]

CCS(=O)(=O)c1ccc(N(C)C(=O)C2CC2)nc1-c1cc2cnn(CC(F)(F)C(F)(F)F)c2cn1 [Compound P15, N-[5-ethylsulfonyl-6-[1-(2,2,3,3,3-pentafluoropropyl)pyrazolo[3,4-c]pyridin-5-yl]-2-pyridyl]-N-methyl-cyclopropane-carboxamide]
≥ 80%: percent effect (mortality or growth inhibition) at 200 ppm [1] | percent effect (mortality or growth inhibition) at 200 ppm [2] | percent effect (mortality or growth inhibition) at 200 ppm [3] | mortality at 200 ppm [4] | percent control (mortality, anti-feedant effect or growth inhibition) at 200 ppm [5]

CCS(=O)(=O)c1cc(C2CC2)cnc1-c1cc2ncn(CC(F)(F)C(F)(F)F)c2cn1 [Compound P52, 6-(5-cyclopropyl-3-ethylsulfonyl-2-pyridyl)-3-(2,2,3,3,3-pentafluoropropyl) imidazo[4,5-c]pyridine]
≥ 80%: percent effect (mortality or growth inhibition) at 200 ppm [1] | percent effect (mortality or growth inhibition) at 200 ppm [2] | percent effect (mortality or growth inhibition) at 200 ppm [3] | mortality at 24 ppm [6] | percent control (mortality, anti-feedant effect or growth inhibition) at 200 ppm [5]

CCS(=O)(=O)c1ccc(-n2cncn2)nc1-c1cc2cnn(CC(F)(F)C(F)(F)F)c2cn1 [Compound P22, 5-[3-ethylsulfonyl-6-(1,2,4-triazol-1-yl)-2-pyridyl]-1-(2,2,3,3,3-pentafluoropropyl) pyrazolo[3,4-c] pyridine]
≥ 80%: percent effect (mortality or growth inhibition) at 200 ppm [1] | percent effect (mortality or growth inhibition) at 200 ppm [2] | percent effect (mortality or growth inhibition) at 200 ppm [3] | mortality at 200 ppm [4] | percent control (mortality, anti-feedant effect or growth inhibition) at 200 ppm [5]

CCS(=O)(=O)c1cccnc1-c1cc2ccn(CC(F)(F)C(F)(F)F)c2cn1 [Compound P8, 5-(3-ethylsulfonyl-2-pyridyl)-1-(2,2,3,3,3-pentafluoropropyl) pyrrolo[2,3-c]pyridine]
≥ 80%: percent effect (mortality or growth inhibition) at 200 ppm [1] | percent effect (mortality or growth inhibition) at 200 ppm [2] | percent effect (mortality or growth inhibition) at 200 ppm [3] | mortality at 200 ppm [4] | percent control (mortality, anti-feedant effect or growth inhibition) at 200 ppm [5]

CCS(=O)(=O)c1ccc(N(C)C(=O)NC)nc1-c1cc2cnn(CC(F)(F)C(F)(F)F)c2cn1 [Compound P33, 1-[5-ethylsulfonyl-6-[1-(2,2,3,3,3-pentafluoropropyl)pyrazolo[3,4-c]pyridin-5-yl]-2-pyridyl]-1,3-dimethyl-urea]
≥ 80%: percent effect (mortality or growth inhibition) at 200 ppm [1] | percent effect (mortality or growth inhibition) at 200 ppm [2] | percent effect (mortality or growth inhibition) at 200 ppm [3] | mortality at 200 ppm [4] | percent control (mortality, anti-feedant effect or growth inhibition) at 200 ppm [5]

CCS(=O)(=O)c1cc(-n2ccc(Cl)n2)cnc1-c1cc2cnn(CC(F)(F)C(F)(F)F)c2cn1 [Compound P46, 5-[5-(3-chloropyrazol-1-yl)-3-ethylsulfonyl-2-pyridyl]-1-(2,2,3,3,3-pentafluoropropyl) pyrazolo[3,4-c]pyridine]
≥ 80%: percent effect (mortality or growth inhibition) at 200 ppm [1] | percent effect (mortality or growth inhibition) at 200 ppm [2] | percent effect (mortality or growth inhibition) at 200 ppm [3] | mortality at 200 ppm [4] | percent control (mortality, anti-feedant effect or growth inhibition) at 200 ppm [5]

CCS(=O)(=O)c1cc(Oc2ccccn2)cnc1-c1cc2cnn(CC(F)(F)C(F)(F)F)c2cn1 [Compound P21]
≥ 80%: percent effect (mortality or growth inhibition) at 200 ppm [1] | percent effect (mortality or growth inhibition) at 200 ppm [2] | percent effect (mortality or growth inhibition) at 200 ppm [3] | mortality at 200 ppm [4] | percent control (mortality, anti-feedant effect or growth inhibition) at 200 ppm [5]

CCS(=O)(=O)c1cc(Oc2ccccn2)cnc1-c1cc2ccn(CC(F)(F)C(F)(F)F)c2cn1 [Compound P17, 5-[3-ethylsulfonyl-5-(2-pyridyloxy)-2-pyridyl]-1-(2,2,3,3,3-pentafluoropropyl) pyrrolo[2,3-c]pyridine]
≥ 80%: percent effect (mortality or growth inhibition) at 200 ppm [1] | percent effect (mortality or growth inhibition) at 200 ppm [2] | percent effect (mortality or growth inhibition) at 200 ppm [3] | mortality at 200 ppm [4] | percent control (mortality, anti-feedant effect or growth inhibition) at 200 ppm [5]
